Test results reported in patent EP1435238A1, “Methods for treating apnea and apnea disorders using optically pure R (+) ondansetron” (Sepracor Inc., priority 1999, dated 2000).

Assay: Electrophysiological effects (EKG, QTc interval, cardiotoxicity) in dogs
Assay type: in vivo, mongrel dogs
Conditions: for prolongation of QTc interval (comparison in words): among the animals tested; for QTc Interval: dogs, rising cumulative dose at 30 minute intervals; for dogs died / survived: during or shortly after the experiment, four dogs per treatment, cumulative doses up to 4.0 mg/kg
[1] = 4.0 mg/kg, N=4 except S(-) ondansetron N=3

Method: An investigation was conducted to determine the effect of racemic ondansetron and the R(+)- and S(-)- enanatiomers of ondansetron in causing cardiac arrhythmias (cardiotoxicity) resulting from a lengthening of the cardiac action potential.
The order of administration was randomized to ensure that each dog received only one treatment.

Row | SMILES | prolongation of QTc interval (comparison in words) | QTc Interval (1.0 mg/kg, N=4) | QTc Interval (2.0 mg/kg, N=4) | QTc Interval [1] | dogs died / survived | cardiotoxicity (comparison in words) (conclusion from QTc and mortality data)
1 | Cc1nccn1CC1CCc2c(c3ccccc3n2C)C1=O (racemic) [R,S-Ondansetron, ondansetron] | most prolonged | 0.41 ± 0.01 s | 0.45 ± 0.01 s | 0.47 ± 0.01 s | survived | 
2 | Cc1nccn1C[C@H]1CCc2c(c3ccccc3n2C)C1=O [R(+)-Ondansetron, R(+) ondansetron] | shortest | 0.39 ± 0.01 s | 0.40 ± 0.01 s | 0.41 ± 0.02 s | survived | less cardiotoxicity than either S(-) ondansetron or racemic ondansetron
3 | Cc1nccn1C[C@@H]1CCc2c(c3ccccc3n2C)C1=O [S(-)-Ondansetron, S(-) ondansetron] | most prolonged | 0.43 ± 0.02 s | 0.44 ± 0.04 s | 0.44 ± 0.03 s |  | 
